Assay results: patent publication US9388199B2, “Pyrrolidine derivatives and their use as complement pathway modulators” (priority 2012, dated 2016)

Molecular target: Recombinant human factor D (Homo sapiens (Human), UniProt P00746)
Assay: Human Complement Factor D Assay: Method 1
Type: biochemical
Settings: 10 nM factor D, substrate Z-Lys-thiobenzyl, fluorescence readout, read-out: IC50 (μM), Factor D inhibition
Method: Human Complement Factor D Assay: Method 1
Recombinant human factor D (expressed in E. coli and purified using standard methods) at 10 nM concentration is incubated with test compound at various concentrations for 1 hour at room temperature in 0.1 M Hepes buffer, pH 7.5, containing 1 mM MgCl2, 1 M NaCl and 0.05% CHAPS. A synthetic substrate Z-Lys-thiobenzyl and 2,4-dinitrobenzenesulfonyl-fluoresceine are added to final concentrations of 200 μM and 25 μM, respectively. The increase in fluorescence is recorded at excitation of 485 nm and emission at 535 nm in a microplate spectrofluorimeter. IC50 values are calculated from percentage of inhibition of complement factor D-activity as a function of test compound concentration.

Recombinant human factor D, sequence (P00746 26-253): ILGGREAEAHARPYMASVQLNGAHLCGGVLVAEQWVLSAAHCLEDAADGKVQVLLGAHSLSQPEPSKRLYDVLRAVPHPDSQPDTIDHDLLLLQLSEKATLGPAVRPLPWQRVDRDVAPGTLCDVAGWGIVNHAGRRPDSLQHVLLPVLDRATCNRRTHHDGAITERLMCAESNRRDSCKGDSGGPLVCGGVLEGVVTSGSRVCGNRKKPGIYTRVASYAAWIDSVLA

`NC(=O)n1cc(NC(=O)N2[C@@H]3C[C@@H]3C[C@H]2C(=O)NCCCCOC(F)(F)F)c2ccccc21` [Example 26, (1R,3S,5R)-2-Aza-bicyclo [3.1.0]hexane-2,3-dicarboxylic acid 2-[(1-carbamoyl-1H-indol-3-yl)-amide] 3-[(4-trifluoromethoxy-butyl)-amide]] and `NC(=O)n1cc(NC(=O)N2[C@@H]3C[C@@H]3C[C@H]2C(=O)NCCOC(F)(F)C(F)(F)F)c2ccccc21` [Example 27, (1R,3S,5R)-2-Aza-bicyclo [3.1.0]hexane-2,3-di arboxylic acid 2-[(1-carbamoyl-1H-indol-3-yl)-amide] 3-[(2-pentafluoroethyloxy-ethyl)-amide]] are within 1.5-fold of each other in IC50: 1.39 µM for the first, 1.97 µM for the second.

Compared with `CO[C@H]1[C@@H](C(=O)NCCC(C)(C)C)N(C(=O)Cn2nc(C(N)=O)c3cc(C)ncc32)C[C@@H]1F` [Example 4, 1-{2-[(2S,3S,4S)-2-(3,3-Dimethyl-butylcarbamoyl)-4-fluoro-3-methoxy-pyrrolidin-1-yl]-2-oxo-ethyl}-5-methyl-1H-pyrazolo[3,4-c]pyridine-3-carboxylic acid amide], `CO[C@H]1[C@@H](C(=O)NCCC(C)(C)C)N(C(=O)Cn2nc(C(N)=O)c3ccccc32)C[C@@H]1F` [Example 3, 1-{2-[(2S,3S,4S)-2-(3,3-Dimethyl-butylcarbamoyl)-4-fluoro-3-methoxy-pyrrolidin-1-yl]-2-oxo-ethyl}-1H-indazole-3-carboxylic acid amide] is 1.6-fold lower in IC50: 0.161 µM for the first, 0.103 µM for the second.

Going from `COC[C@H](CC(C)(C)C)NC(=O)[C@@H]1C[C@H]2C[C@H]2N1C(=O)Cn1nc(C(N)=O)c2ccccc21` [Example 37, 1-{2-[(1R,3S,5R)-3-((S)-1-Methoxymethyl-3,3-dimethyl-butylcarbamoyl)-2-aza-bicyclo[3.1.0]hex-2-yl]-2-oxo-ethyl}-1H-indazole-3-carboxylic acid amide] to `CC(C)(C)CCNC(=O)[C@@H]1C[C@H]2C[C@H]2N1C(=O)Cn1nc(C(N)=O)c2ccncc21` [Example 6, 1-{2-[(1R,3S,5R)-3-(3,3-Dimethyl-butylcarbamoyl)-2-aza-bicyclo[3.1.0]hex-2-yl]-2-oxo-ethyl}-1H-pyrazolo[3,4-c] pyridine-3-carboxylic acid amide], the IC50 falls from 0.443 µM to 0.168 µM (2.6-fold). The second is the more potent here.

`C[Si](C)(C)CCNC(=O)[C@@H]1C[C@H]2C[C@H]2N1C(=O)Cn1nc(C(N)=O)c2ccncc21` [Example 9, 1-{2-Oxo-2-[(1R,3S,5R)-3-(2-trimethylsilanyl-ethylcarbamoyl)-2-aza-bicyclo[3.1.0]hex-2-yl)-ethyl}-1H-pyrazolo[3,4-c] pyridine-3-carboxylic acid amide] and `CC(=O)c1nn(CC(=O)N2[C@@H]3C[C@@H]3C[C@H]2C(=O)NCCC(C)(C)C)c2ncccc12` [Example 29, (1R,3S,5R)-2-[2-(3-Acetyl-pyrazolo[3,4-b]pyridin-1-yl)-acetyl]-2-aza-bicyclo[3.1.0] hexane-3-carboxylic acid (3,3-dimethyl-butyl)-amide] are within 1.5-fold of each other in IC50: 0.153 µM for the first, 0.227 µM for the second.

Compared with `CC(=O)c1nn(CC(=O)N2[C@@H]3C[C@@H]3C[C@H]2C(=O)NCCCOC(F)(F)F)c2ccc(OCc3ncccn3)cc12` [Example 14, (1R,3S,5R)-2-{2-[3-Acetyl-5-(pyrimidin-2-ylmethoxy)-indazol-1-yl]-acetyl}-2-aza-bicyclo[3.1.0]hexane-3-carboxylic acid (3-trifluoro methoxy-propyl)-amide], `CCNC(=O)[C@@H]1C[C@H]2C[C@H]2N1C(=O)Cn1nc(C(N)=O)c2cc(OCc3ncccn3)ccc21` [Example 18, 1-[2-((1R,3S,5R)-3-Ethylcarbamoyl-2-aza-bicyclo[3.1.0]hex-2-yl)-2-oxo-ethyl]-5-(pyrimidin-2-ylmethoxy)-1H-indazole-3-carboxylic acid amide] is 23-fold higher in IC50: 0.127 µM for the first, 2.89 µM for the second. The first is the more potent here.

Compound `CO[C@@H]1CN(C(=O)Cn2nc(C(N)=O)c3ccccc32)[C@H](C(=O)NCCC(C)(C)C)[C@H]1F` [Example 11, 1-{2-[(2R,3R,4R)-2-(3,3-Dimethyl-butylcarbamoyl)-3-fluoro-4-methoxy-pyrrolidin-1-yl]-2-oxo-ethyl}-1H-indazole-3-carboxylic acid amide] has an IC50 of 14.6 µM.
